Test results published in US5567692A, “9-[(substituted glycyl) amido)]-6-demethyl-6-deoxytetracyclines” (priority 1995, dated 1996).
Counter-ions that a name gives are not always drawn.

Experiments:
[1] = test system: S. aureus UBMS 88-5 Tet M; assay: microbe, parasite or virus in culture; assay type: cell-based; conditions: Staphylococcus aureus, UBMS885TETM, 18 h
Enterococcus faecalis = assay: MIC range, recent clinical and veterinary isolates; assay type: cell-based; conditions: 18 h, read-out: MIC Range
the ribosome = assay: Reversibility of binding: bacterial growth after washing of the organism; assay type: cell-based; conditions: bacterial growth resumes when the compound is removed by washing
Source text: Therefore, the ability of 9-[(N,N-dimethylglycyl)amido]-6-demethyl-6-deoxytetracycline to inhibit bacterial growth appears to be a direct consequence of its ability to inhibit protein synthesis at the ribosome level.

E. coli PRP1 Tet A = assay: microbe, parasite or virus in culture; assay type: cell-based; conditions: dihydrochloride
S. aureus UBMS 88-4 = assay: MIC, agar dilution; assay type: cell-based; conditions: Staphylococcus aureus, UBMS884, 18 h
Proteus mirabilis = assay: MIC range, recent clinical and veterinary isolates; assay type: cell-based; conditions: 18 h, read-out: MIC Range
S. aureus IVES 2943 = assay: MIC, agar dilution; assay type: cell-based; conditions: S. aureus IVES 2943; dihydrochloride
[2] = test system: Pasturella multocida (Veterinary); assay: MIC range, recent clinical and veterinary isolates; assay type: cell-based; conditions: 18 h, [17] isolates
Moraxella catarrhalis = assay: MIC range, recent clinical and veterinary isolates; assay type: cell-based; conditions: 18 h, [18] isolates, read-out: MIC Range
Streptococcus pneumoniae = assay: MIC range, recent clinical and veterinary isolates; assay type: cell-based; conditions: 18 h, [10] isolates, read-out: MIC Range
[3] = test system: Bordetella bronchiseptica (Veterinary); assay: MIC range, recent clinical and veterinary isolates; assay type: cell-based; conditions: 18 h; Bordetella bronchiseptica (Veterinary), [10] isolates; read-out: MIC Range
E. coli J2175 = assay: MIC, agar dilution; assay type: cell-based
[4] = test system: E. coli UBMS 89-2 Tet sens.; assay: MIC, agar dilution; assay type: cell-based; conditions: E. coli UBMS 89-2 Tet sens.
[5] = test system: X. maltophilia NEMC 87210; assay: MIC, agar dilution; assay type: cell-based; conditions: X. maltophilia NEMC 87210; dihydrochloride
[6] = test system: tetracycline sensitive and resistant Gram-positive and Gram-negative bacteria; assay: In vitro antibacterial evaluation, summary in words; assay type: cell-based; conditions: summary of Tables I, II and V, dihydrochloride
Morganella morganii = assay: MIC range, recent clinical and veterinary isolates; assay type: cell-based; conditions: 18 h, [16] isolates
E. coli BAJ9003 IMP MUT = assay: microbe, parasite or virus in culture; assay type: cell-based; conditions: E. coli BAJ9003 IMP MUT
Enterococcus 12201 = assay: MIC, agar dilution; assay type: cell-based; conditions: Enterococcus 12201
Enterococcus faecium = assay: MIC range, recent clinical and veterinary isolates; assay type: cell-based; conditions: 18 h, read-out: MIC Range
[7] = test system: Staphylococcus aureus, (methicillin-susceptible); assay: MIC range, recent clinical and veterinary isolates; assay type: cell-based; conditions: Staphylococcus aureus, 18 h, read-out: MIC Range
Serratia marcescens = assay: MIC range, recent clinical and veterinary isolates; assay type: cell-based; conditions: 18 h, [10] isolates, read-out: MIC Range
[8] = test system: Escherichia coli (Veterinary); assay: MIC range, recent clinical and veterinary isolates; assay type: cell-based; conditions: 18 h, [15] isolates
E. coli UBMS 88-1 Tet B = assay: microbe, parasite or virus in culture; assay type: cell-based; conditions: E. coli UBMS 88-1 Tet B
[9] = test system: Escherichia coli UBMS 90-4 (Tet M); assay: Acute lethal infection in mice, E. coli UBMS 90-4; conditions: in Mus musculus, iv, 168 h
Citrobacter diversus = assay: MIC range, recent clinical and veterinary isolates; assay type: cell-based; conditions: Citrobacter koseri, 18 h; Citrobacter diversus, [10] isolates; read-out: MIC Range
[10] = test system: S. aureus UBMS 90-1 Tet M; assay: microbe, parasite or virus in culture; assay type: cell-based; conditions: S. aureus UBMS 90-1 Tet M; dihydrochloride
Pseudomonas aeruginosa = assay: MIC range, recent clinical and veterinary isolates; assay type: cell-based; conditions: 18 h, [10] isolates, read-out: MIC Range
S. aureus ROSE (MP) = assay: MIC, agar dilution; assay type: cell-based; conditions: Staphylococcus aureus, 18 h, read-out: MIC
S. aureus NEMC 8769 = assay: MIC, agar dilution; assay type: cell-based
Streptococcus pyogenes = assay: MIC range, recent clinical and veterinary isolates; assay type: cell-based; conditions: 18 h, read-out: MIC Range
Enterobacter cloacae = assay: MIC range, recent clinical and veterinary isolates; assay type: cell-based; conditions: 18 h, [10] isolates, read-out: MIC Range
Klebsiella pneumoniae = assay: MIC range, recent clinical and veterinary isolates; assay type: cell-based; conditions: 18 h, [10] isolates
[11] = test system: Bacteroides fragilis group; assay: MIC range, recent clinical and veterinary isolates; assay type: cell-based; conditions: Bacteroides fragilis, 18 h, read-out: MIC Range
[12] = test system: E. coli MC 4100 TNIOC Tet B; assay: microbe, parasite or virus in culture; assay type: cell-based; conditions: E. coli MC 4100 TNIOC Tet B
E. coli J3272 Tet C = assay: microbe, parasite or virus in culture; assay type: cell-based; conditions: dihydrochloride
[13] = test system: S. aureus UBMS 88-7 Tet K; assay: microbe, parasite or virus in culture; assay type: cell-based; conditions: dihydrochloride
Streptococcus agalactiae = assay: MIC range, recent clinical and veterinary isolates; assay type: cell-based; conditions: 18 h, read-out: MIC Range
S. aureus SMITH (MP) = assay: MIC, agar dilution; assay type: cell-based; conditions: Staphylococcus aureus, 18 h; S. aureus SMITH (MP); read-out: MIC
Shigella spp. = assay: MIC range, recent clinical and veterinary isolates; assay type: cell-based; conditions: 18 h, [14] isolates
S. marcescens FPOR 8733 = assay: MIC, agar dilution; assay type: cell-based; conditions: dihydrochloride
Clostridium perfringens = assay: microbe, parasite or virus in culture; assay type: cell-based; conditions: 18 h, read-out: MIC Range
Neisseria gonorrhoeae = assay: MIC range, recent clinical and veterinary isolates; assay type: cell-based; conditions: 18 h, [14] isolates

CN(C)CC(=O)Nc1ccc2c(c1O)C(=O)C1=C(O)[C@]3(O)C(=O)C(C(N)=O)=C(O)[C@@H](N(C)C)C3CC1C2 (stereo partly drawn) [CC, [4S-(4alpha,12aalpha)]-4-(Dimethylamino)-9-[[(dimethylamino)acetyl]amino]-1,4,4a,5,5a,6,11,12a-octahydro-3,10,12,12a-tetrahydroxy-1,11-dioxo-2-naphthacenecarboxamide dihydrochloride]
MIC [1]: 0.03 µg/mL
MIC (Enterococcus faecalis): 0.03 to 0.25 µg/mL
binding to its target (the ribosome), reversibility (the ribosome): binds reversibly
MIC (E. coli PRP1 Tet A): 0.5 µg/mL
MIC (S. aureus UBMS 88-4): 0.03 µg/mL
MIC (Proteus mirabilis): 0.12 to 2 µg/mL
MIC (S. aureus IVES 2943): 0.5 µg/mL
MIC [2]: 0.03 to 0.25 µg/mL
MIC (Moraxella catarrhalis): 0.06 to 0.12 µg/mL
MIC (Streptococcus pneumoniae): 0.03 to 0.5 µg/mL
MIC [3]: 0.06 to 0.12 µg/mL
MIC (E. coli J2175): 0.25 µg/mL
MIC [4]: 0.25 µg/mL
MIC [5]: 1 µg/mL
in vitro antibacterial activity (in words) [6]: excellent in vitro activity
in vitro antibacterial activity (in words) ([6]; listed as 9-[(N,N-dimethylglycyl)amido)]-6-demethyl-6-deoxytetracycline): potent in vitro antibacterial activity
MIC (Morganella morganii): 0.5 to 1 µg/mL
MIC (E. coli BAJ9003 IMP MUT): no growth
MIC (Enterococcus 12201): 0.03 µg/mL
MIC (Enterococcus faecium): 0.06 to 0.5 µg/mL
MIC [7]: 0.06 to 0.25 µg/mL
MIC (Serratia marcescens): 2 to 8 µg/mL
MIC [8]: 0.25 to 4 µg/mL
MIC (E. coli UBMS 88-1 Tet B): 0.25 µg/mL
ED50 [9]: 1.6 mg/kg
MIC (Citrobacter diversus): 0.25 to 1 µg/mL
MIC [10]: 0.06 µg/mL
MIC (Pseudomonas aeruginosa): 2 to 16 µg/mL
MIC (S. aureus ROSE (MP)): 1 µg/mL
MIC (S. aureus NEMC 8769): < 0.015 µg/mL
MIC (Streptococcus pyogenes): 0.06 to 0.12 µg/mL
MIC (Enterobacter cloacae): 0.5 to 1 µg/mL
MIC (Klebsiella pneumoniae): 0.25 to 4 µg/mL
MIC [11]: 0.12 to 2 µg/mL
MIC [12]: 0.25 µg/mL
MIC (E. coli J3272 Tet C): 0.25 µg/mL
MIC [13]: 0.5 µg/mL
MIC (Streptococcus agalactiae): 0.12 to 0.25 µg/mL
MIC (S. aureus SMITH (MP)): 0.03 µg/mL
MIC (Shigella spp.): 0.12 to 0.5 µg/mL
MIC (S. marcescens FPOR 8733): 2 µg/mL
MIC (Clostridium perfringens): 0.03 to 2 µg/mL
MIC (Neisseria gonorrhoeae): 0.5 to 1 µg/mL
